Data taken from patent publication US20090239926A1, “METHODS FOR THE TREATMENT OF PSORIASIS OR PSORIATIC ARTHRITIS USING CYCLOPROPYL-N-CARBOXAMIDE” (priority 2008, published 2009).
pIC50: −log10 of the molar value. Values joined by “and” are separate entries in the source; they are usually repeats but may differ in a detail not shown here. Equal values may be shown once.

Assays:
[1] = target: T1, PDE3 from human platelets (Homo sapiens, UniProt Q14432); test: Specificity: PDE3; type: biochemical
T1 construct: PDE3 and PDE5 from human platelets; from tissue; host or cells: human platelets
T1 sequence (Q14432 whole entry): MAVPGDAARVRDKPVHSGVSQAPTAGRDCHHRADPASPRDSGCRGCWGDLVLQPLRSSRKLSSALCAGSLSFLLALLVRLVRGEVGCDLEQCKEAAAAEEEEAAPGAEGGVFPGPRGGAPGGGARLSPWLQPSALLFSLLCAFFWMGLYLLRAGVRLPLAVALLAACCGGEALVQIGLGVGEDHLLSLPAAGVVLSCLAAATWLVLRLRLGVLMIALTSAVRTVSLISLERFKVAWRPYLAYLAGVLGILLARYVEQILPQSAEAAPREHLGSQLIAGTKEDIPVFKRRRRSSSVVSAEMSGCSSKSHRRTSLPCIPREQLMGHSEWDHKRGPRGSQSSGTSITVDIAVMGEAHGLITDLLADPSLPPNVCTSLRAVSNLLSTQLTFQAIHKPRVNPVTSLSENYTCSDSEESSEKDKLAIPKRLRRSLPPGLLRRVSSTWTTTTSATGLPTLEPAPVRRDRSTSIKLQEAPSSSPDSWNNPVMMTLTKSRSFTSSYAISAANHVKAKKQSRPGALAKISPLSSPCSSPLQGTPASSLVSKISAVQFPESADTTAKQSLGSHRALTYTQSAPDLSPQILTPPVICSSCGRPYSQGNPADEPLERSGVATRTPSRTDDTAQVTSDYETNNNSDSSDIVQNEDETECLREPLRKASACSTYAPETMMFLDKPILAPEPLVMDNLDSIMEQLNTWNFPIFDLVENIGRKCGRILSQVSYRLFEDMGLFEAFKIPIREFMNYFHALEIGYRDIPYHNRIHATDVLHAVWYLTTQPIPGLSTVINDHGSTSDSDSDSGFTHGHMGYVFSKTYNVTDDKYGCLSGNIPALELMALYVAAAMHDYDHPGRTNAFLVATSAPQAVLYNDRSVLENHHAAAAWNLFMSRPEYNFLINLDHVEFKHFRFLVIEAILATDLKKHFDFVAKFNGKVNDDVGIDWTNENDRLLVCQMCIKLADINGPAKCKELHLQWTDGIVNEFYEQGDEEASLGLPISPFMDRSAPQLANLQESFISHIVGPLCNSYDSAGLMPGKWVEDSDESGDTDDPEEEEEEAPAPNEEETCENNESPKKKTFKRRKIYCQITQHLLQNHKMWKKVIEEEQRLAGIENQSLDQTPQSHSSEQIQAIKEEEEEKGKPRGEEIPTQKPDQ
Procedure: (§1) The specificity of Compound A for PDE4 was assessed by testing at a single concentration (10 μM) against bovine PDE1, human PDE2, PDE3 and PDE5 from human platelets, and PDE6 from bovine retinal rod outer segments.

[2] = test system: IL-5 production by human CD4+ T cells; test: IL-5 production by CD4+ T cells; type: cell-based; conditions: CD4+ T cell, stimulated with CD3 antibody OKT3 and CD28 antibody CD28.2
Procedure: CD4^+ T cells were purified from human leukocytes obtained from the Blood Center of New Jersey (East Orange, N.J.) by negative selection (Schafer, P. H., et al., J Immunol, 1999. 162(12): 7110-9). CD4^+ T cells were stimulated with CD3 antibody OKT3 (purified from OKT3 hybridoma supernatant) and CD28 antibody CD28.2 (BD Pharmingen) (Hatzelmann, A. and C. Schudt, J Pharmacol Exp Ther, 2001. 297(1): 267-79). IL-5 was measured by ELISA (R&D Systems).

[3] = test system: spontaneous behavior; test: Spontaneous behavior (LABORAS) in non-arthritic mice; type: in vivo; conditions: 25 mg/kg/day
Procedure: Behavioral studies: The effect of Compound A (25 mg/kg/day) on spontaneous behavior was assessed using the LABORAS (Laboratory Animal Behavior Observation Registration and Analysis System), which is an automated system that detects vibrations evoked by movement of a single rodent in a cage. Pattern recognition software then recognizes and quantifies behaviors, including grooming, activity, climbing, immobility, and feeding.

[4] = test system: TNF-α production by synoviocytes from rheumatoid arthritis patients; test: TNF-α production by human rheumatoid synovial membrane cells; type: cell-based; conditions: 48 hours culture, ELISA
Procedure: Human Rheumatoid Synovial Membrane Cell: Rheumatoid synovial membrane tissue samples were processed to dissociate the cells from the matrix by digesting the tissue with Collagenase A and DNAse. The cells were then plated into a 96-well flat-bottom plate at 1×10^6/well in RPMI (10% FCS) and treated with Compound A and controls (in triplicate). The cells were cultured for 48 hours at 37° C. in 5% CO2 before supernatants were harvested and analyzed by ELISA.
Compound A was solubilized under sterile conditions in filter-sterilized dimethyl sulphoxide (DMSO). The vehicle control contained the same concentration of DMSO used as the diluent in the highest concentration of drug used. A combined treatment of anti-TNF-α and IL-1RA, both at 10 μg/ml, was used as a positive control.

[5] = test system: fMLF-induced neutrophil LTB4 production; test: fMLF-induced neutrophil LTB4 production; type: cell-based; conditions: Homo sapiens, 0.5 h, 1 μM fMLP, 30 minutes
Procedure: Formyl-Met-Leu-Phe (fMLP, Sigma) is a bacterially derived peptide that activates neutrophils to rapidly degranulate, migrate, and adhere to endothelial cells. Among the contents of the neutrophil granule is leukotriene B4 (LTB4), a product of arachidonic acid metabolism and itself a neutrophil stimulant. Compound A was tested for the ability to block fMLF-induced neutrophil LTB4 production.
Human neutrophils were isolated from human leukocyte units by dextran sedimentation as described in Coligan, J. E., et al., Current Protocols in Immunology, ed. R. Coico. Vol. 2. 2002: 2-3. The neutrophils were resuspended in phosphate-buffered saline without calcium or magnesium (BioWhittaker) containing 10 mM HEPES pH 7.2 and plated in 96-well tissue culture plates at a concentration of 1.7×10^6 cells/well. Cells were treated with 50 μM thimerosal (Sigma)/1 mM CaCl2/1 mM MgCl2 for 15 minutes at 37° C. 5% CO2, then treated with Compound A in a final DMSO concentration of 0.01% in duplicate for 10 minutes. Neutrophils were stimulated with 1 μM fMLP for 30 minutes, then lysed by the addition of methanol (20% final concentration) and frozen in a dry ice/isopropanol bath for 10 minutes. Lysates were stored at −70° C. until the LTB4 content was measured by competitive LTB4 ELISA (R&D systems).

[6] = test system: LPS-stimulated human PBMC TNF-α production; test: LPS-induced TNF-α production in human PBMC; type: cell-based; conditions: LPS 100 ng/ml, 18-20 hours
Procedure: LPS-induced TNF-α production in Human PBMC: Human peripheral blood mononuclear cells (PBMC) (2×10^5 cells) were plated in 96-well flat-bottom Costar tissue culture plates (Corning, N.Y., USA) in triplicate. Compound A was dissolved in DMSO (Sigma) and further dilutions were done in culture medium immediately before use. The final DMSO concentration in all samples was 0.25%. Various concentration of Compound A was added to cells one hour before stimulation. Cells were stimulated with LPS (Sigma, St. Louis, Mo., USA) at 100 ng/ml, in the absence or presence of Compound A. Cells were incubated for 18-20 hours at 37 in 5% CO2 and supernatants were then collected, diluted with culture medium and assayed for TNF-α levels by ELISA (Endogen, Boston, Mass., USA) (Muller, G. W., et al., J Med Chem, 1996. 39(17): 3238-40).

[7] = test system: Lymph node cells (LNC); test: Lymph node cells of collagen-immunized mice stimulated in vitro with type II collagen or anti-CD3 mAb; type: cell-based; conditions: FIG. 6
From the text: Ex Vivo Procedure: Mice were bled and lymph nodes were excised. Lymph node cells (LNC) were stimulated in vitro with antigen (type II collagen) or mitogen (anti-CD3 mAb) in the presence of Compound A.

[8] = target: human PDE2 (Homo sapiens, UniProt O00408); test: Specificity: PDE2; type: biochemical
human PDE2, sequence (O00408 whole entry): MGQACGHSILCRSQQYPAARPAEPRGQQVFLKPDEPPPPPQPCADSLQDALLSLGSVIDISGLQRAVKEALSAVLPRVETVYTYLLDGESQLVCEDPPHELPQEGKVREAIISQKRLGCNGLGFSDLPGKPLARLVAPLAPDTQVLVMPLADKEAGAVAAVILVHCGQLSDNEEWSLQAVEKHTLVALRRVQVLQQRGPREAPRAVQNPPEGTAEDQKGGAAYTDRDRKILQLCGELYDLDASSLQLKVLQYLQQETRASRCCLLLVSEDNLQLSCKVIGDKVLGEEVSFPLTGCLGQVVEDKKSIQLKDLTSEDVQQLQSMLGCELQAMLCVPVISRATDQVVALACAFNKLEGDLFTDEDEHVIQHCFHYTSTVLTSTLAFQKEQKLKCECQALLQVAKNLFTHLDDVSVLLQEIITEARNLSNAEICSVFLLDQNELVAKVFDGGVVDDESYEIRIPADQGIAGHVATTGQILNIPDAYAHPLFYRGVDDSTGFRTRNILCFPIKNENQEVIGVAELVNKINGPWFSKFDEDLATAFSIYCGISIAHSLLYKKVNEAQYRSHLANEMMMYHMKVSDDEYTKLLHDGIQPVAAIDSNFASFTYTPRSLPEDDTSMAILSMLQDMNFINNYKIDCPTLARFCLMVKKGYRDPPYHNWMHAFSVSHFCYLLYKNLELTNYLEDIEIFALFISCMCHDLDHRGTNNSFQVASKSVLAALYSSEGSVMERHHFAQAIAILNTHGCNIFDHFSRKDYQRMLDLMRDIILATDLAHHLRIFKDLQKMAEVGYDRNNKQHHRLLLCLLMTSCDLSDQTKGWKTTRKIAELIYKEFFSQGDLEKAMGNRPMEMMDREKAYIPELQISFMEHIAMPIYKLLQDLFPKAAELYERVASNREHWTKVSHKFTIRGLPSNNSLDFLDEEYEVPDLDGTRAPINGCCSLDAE
Procedure: as §1

[9] = test system: LPS-stimulated human whole blood TNF-α production; test: LPS-induced TNF-α production in human whole blood; type: cell-based
Procedure: LPS-induced TNF-α production in Human Whole Blood: The ability of Compound A to inhibit LPS-induced TNF-α production by human whole blood was measured as described above for the LPS-induced TNF-α assay in human PBMC, except that freshly drawn whole blood was used instead of PBMC.

inhibition at 10 µM [1]: 9%
IC50 [2]: 520 nM and 0.25 µg/mL
effect on climbing [3]: little or no effect
effect on grooming [3]: little or no effect
effect on locomotion [3]: only a modest reduction
effect on time spent immobile [3]: little or no effect
pIC50 [4]: 7.00
IC50 [5]: 10 nM and 0.0047 µg/mL
inhibition at 10 µM [8]: -14%
IC50 [9]: 240 nM and 0.11 µg/mL
Structure (SMILES): CCOc1cc([C@@H](CS(C)(=O)=O)N2Cc3cccc(NC(=O)C4CC4)c3C2=O)ccc1OC [Compound A, cyclopropyl-N-{2-[(1S)-1-(3-ethoxy-4-methoxyphenyl)-2-(methylsulfonyl)ethyl]-3-oxoisoindoline-4-yl}carboxamide]
IC50 [6]: 51 nM and 0.024 µg/mL
production of the Th2 cytokine IL-5 [7]: unaffected
IFN-γ production ([7]; dose-dependent): inhibited
T cell proliferation ([7]; dose-dependent): inhibited
TNF-α production ([7]; dose-dependent): inhibited
